Measurements as given in PMC9457746, “Synthesis of Sulfonamides Incorporating Piperidinyl-Hydrazidoureido and Piperidinyl-Hydrazidothioureido Moieties and Their Carbonic Anhydrase I, II, IX and XII Inhibitory Activity” (Molecules, 2022).

Columns and labels:
hCA I = hCA I (Homo sapiens, UniProt P00915); experiment: stopped flow CO2 hydrase assay, hCA I inhibition
Procedure: (§1) An Applied Photophysics stopped-flow instrument has been used for assaying the CA catalyzed CO2 hydration activity using the Khalifah procedure [23]. The used indicator was phenol red (0.2 mM), the absorbance maximum was of 557 nm, and the buffer was 20 mM Hepes (pH 7.5), whereas 20 mM Na2SO4 were employed for maintaining the ionic strength constant. […] Uncatalyzed rates were subtracted from the observed total rates. […] Inhibitor and enzyme solutions were preincubated together for 15 min, for assuring the formation of the E–I complex. The inhibition constants were obtained by non-linear least squares using the Cheng–Prusoff equation, as reported earlier [24, 25, 26] and represent the mean from at least three different determinations.

hCA II = hCA II (Homo sapiens, UniProt P00918); experiment: stopped flow CO2 hydrase assay, hCA II inhibition
Procedure: as §1

hCA IX = hCA IX (Homo sapiens, UniProt Q16790); experiment: stopped flow CO2 hydrase assay, hCA IX inhibition
Procedure: as §1

hCA XII = hCA XII (Homo sapiens, UniProt O43570); experiment: stopped flow CO2 hydrase assay, hCA XII inhibition
Sequence of hCA XII (O43570 25-354): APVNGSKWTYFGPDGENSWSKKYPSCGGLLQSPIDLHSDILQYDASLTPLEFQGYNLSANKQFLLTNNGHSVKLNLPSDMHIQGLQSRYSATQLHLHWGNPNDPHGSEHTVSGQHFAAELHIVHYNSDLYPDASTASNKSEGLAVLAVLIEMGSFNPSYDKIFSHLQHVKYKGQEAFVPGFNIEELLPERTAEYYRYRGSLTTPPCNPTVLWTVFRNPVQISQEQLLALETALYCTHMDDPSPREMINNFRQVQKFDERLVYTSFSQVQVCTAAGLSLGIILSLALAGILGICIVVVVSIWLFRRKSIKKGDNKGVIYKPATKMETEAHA
Procedure: as §1

Sequence of hCA I (P00915 whole entry): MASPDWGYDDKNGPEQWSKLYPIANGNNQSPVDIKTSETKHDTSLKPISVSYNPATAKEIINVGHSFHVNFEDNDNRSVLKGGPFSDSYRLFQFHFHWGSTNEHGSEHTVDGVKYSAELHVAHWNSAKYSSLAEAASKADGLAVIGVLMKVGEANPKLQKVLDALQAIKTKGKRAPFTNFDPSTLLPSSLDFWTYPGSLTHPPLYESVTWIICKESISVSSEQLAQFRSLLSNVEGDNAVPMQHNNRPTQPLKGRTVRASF

SMILES | Ki (hCA I) | Ki (hCA II) | melting point | Ki (hCA IX) | Ki (hCA XII) | increase in hCA XII activity as compared to the 3,4-dichloro analog (hCA XII; versus 6g) | hCA IX, hCA XII/hCA I selectivity (hCA IX; hCA IX and hCA XII versus hCA I)
NS(=O)(=O)c1ccc(C(=O)N2CCC(C(=O)NNC(=S)Nc3ccc(Cl)cc3)CC2)cc1 [Compound 6f, N-(4-Chlorophenyl)-2-(1-(4-sulfamoylbenzoyl)piperidine-4-carbonyl)hydrazinecarbothioamide] | 131 nM | 41.6 nM | 222 to 223 °C | 26.1 nM | 17.7 nM | – | –
NS(=O)(=O)c1ccc(C(=O)N2CCC(C(=O)NNC(=S)Nc3ccc(Cl)c(Cl)c3)CC2)cc1 [Compound 6g, N-(3,4-Dichlorophenyl)-2-(1-(4-sulfamoylbenzoyl)piperidine-4-carbonyl)hydrazinecarbothioamide] | 442 nM | 22.4 nM | 232 to 233 °C | 4.7 nM | 26.9 nM | – | –
NS(=O)(=O)c1ccc(C(=O)N2CCC(C(=O)NNC(=S)Nc3ccc(Cl)cc3Cl)CC2)cc1 [Compound 6h, N-(2,4-Dichlorophenyl)-2-(1-(4-sulfamoylbenzoyl)piperidine-4-carbonyl)hydrazinecarbothioamide] | 229 nM | 53.4 nM | 220 to 221 °C | 18 nM | 2.6 nM | ~10 fold | –
NS(=O)(=O)c1ccc(C(=O)N2CCC(C(=O)NNC(=S)Nc3c(Cl)cccc3Cl)CC2)cc1 [Compound 6i, N-(2,6-Dichlorophenyl)-2-(1-(4-sulfamoylbenzoyl)piperidine-4-carbonyl)hydrazinecarbothioamide] | 1340 nM | 21.5 nM | 179 to 180 °C | 24.2 nM | 10 nM | – | –
COc1ccccc1NC(=S)NNC(=O)C1CCN(C(=O)c2ccc(S(N)(=O)=O)cc2)CC1 [Compound 6j, N-(2-methoxyphenyl)-2-(1-(4-sulfamoylbenzoyl)piperidine-4-carbonyl)hydrazine-1-carbothioamide] | 160 nM | 13.1 nM | 214 to 215 °C | 4.2 nM | 4.6 nM | – | about 35 fold
COc1cccc(NC(=S)NNC(=O)C2CCN(C(=O)c3ccc(S(N)(=O)=O)cc3)CC2)c1 [Compound 6k, N-(3-methoxyphenyl)-2-(1-(4-sulfamoylbenzoyl)piperidine-4-carbonyl)hydrazine-1-carbothioamide] | 146 nM | 11.2 nM | 214 to 215 °C | 25.1 nM | 29.9 nM | – | –
COc1ccc(NC(=S)NNC(=O)C2CCN(C(=O)c3ccc(S(N)(=O)=O)cc3)CC2)cc1 [Compound 6l, N-(4-Methoxyphenyl)-2-(1-(4-sulfamoylbenzoyl)piperidine-4-carbonyl)hydrazinecarbothioamide] | 211 nM | 15.1 nM | > 250 °C | 22.1 nM | 27.8 nM | – | –
COc1cc(NC(=S)NNC(=O)C2CCN(C(=O)c3ccc(S(N)(=O)=O)cc3)CC2)cc(OC)c1OC [Compound 6m, 2-(1-(4-Sulfamoylbenzoyl)piperidine-4-carbonyl)-N-(3,4,5-trimethoxyphenyl)hydrazinecarbothioamide] | 428 nM | 36.8 nM | > 250 °C | 16.6 nM | 27.3 nM | – | –
NS(=O)(=O)c1ccc(C(=O)N2CCC(C(=O)NNC(=S)Nc3ccccc3F)CC2)cc1 [Compound 6n, N-(2-Fluorophenyl)-2-(1-(4-sulfamoylbenzoyl)piperidine-4-carbonyl)hydrazinecarbothioamide] | 431 nM | 15.2 nM | 219 to 220 °C | 6.9 nM | 4.9 nM | – | –
NS(=O)(=O)c1ccc(C(=O)N2CCC(C(=O)NNC(=S)Nc3ccc(F)cc3)CC2)cc1 [Compound 6p, N-(4-Fluorophenyl)-2-(1-(4-sulfamoylbenzoyl)piperidine-4-carbonyl)hydrazinecarbothioamide] | 79.6 nM | 23 nM | 215 to 216 °C | 20.1 nM | 15.9 nM | – | –
NS(=O)(=O)c1ccc(C(=O)N2CCC(C(=O)NNC(=S)Nc3c(F)cccc3F)CC2)cc1 [Compound 6q, N-(2,6-Difluorophenyl)-2-(1-(4-sulfamoylbenzoyl)piperidine-4-carbonyl)hydrazinecarbothioamide] | 65.4 nM | 28.2 nM | 242 to 243 °C | 5.9 nM | 5.6 nM | – | –
Cc1ccccc1NC(=S)NNC(=O)C1CCN(C(=O)c2ccc(S(N)(=O)=O)cc2)CC1 [Compound 6r, 2-(1-(4-sulfamoylbenzoyl)piperidine-4-carbonyl)-N-(o-tolyl)hydrazine-1-carbothioamide] | 277 nM | 38.5 nM | 209 to 210 °C | 9 nM | 18.4 nM | – | –
Cc1cccc(C)c1NC(=S)NNC(=O)C1CCN(C(=O)c2ccc(S(N)(=O)=O)cc2)CC1 [Compound 6u, N-(2,6-Dimethylphenyl)-2-(1-(4-sulfamoylbenzoyl)piperidine-4-carbonyl)hydrazinecarbothioamide] | 308 nM | 89.6 nM | 233 to 234 °C | 4.7 nM | 9.5 nM | – | –
NS(=O)(=O)c1ccc(C(=O)N2CCC(C(=O)NNC(=S)NCc3ccccc3)CC2)cc1 [Compound 6v, N-Benzyl-2-(1-(4-sulfamoylbenzoyl)piperidine-4-carbonyl)hydrazinecarbothioamide] | 198 nM | 71.4 nM | > 250 °C | 24.2 nM | 25 nM | – | –
COc1ccc(CNC(=S)NNC(=O)C2CCN(C(=O)c3ccc(S(N)(=O)=O)cc3)CC2)cc1 [Compound 6w, N-(4-Methoxybenzyl)-2-(1-(4-sulfamoylbenzoyl)piperidine-4-carbonyl)hydrazinecarbothioamide] | 178 nM | 29.3 nM | 240 to 241 °C | 31.7 nM | 29.9 nM | – | –
NS(=O)(=O)c1ccc(C(=O)N2CCC(C(=O)NNC(=S)NC3CCCCC3)CC2)cc1 [Compound 6y, N-Cyclohexyl-2-(1-(4-sulfamoylbenzoyl)piperidine-4-carbonyl)hydrazinecarbothioamide] | 118 nM | 5.7 nM | 183 to 184 °C | 1.7 nM | 19.6 nM | – | –
